Test results as given in patent US20240002419A1, “RADIATION-ACTIVATED TETRAVALENT PLATINUM COMPLEX AND USE THEREOF” (priority 2020, published 2024).

test: Yield of reduced metal compounds under X-ray irradiation; format: physicochemical; conditions: not given
Description: Operation steps of test: the compound was dissolved in ultrapure water to prepare a 100 μM metal compound solution, and oxygen gas in the solution was removed by bubbling nitrogen gas for 15 minutes. […] Finally, the remaining amount of raw material was measured, the disappeared concentration of the reactant was calculated, and the radiation yield was calculated (radiation yield=disappeared concentration of reactant/radiation dose).

Compound	Yield (radiation yield = disappeared concentration of reactant/radiation dose)
O=S(=O)([O-])[O-].[Cu+2] [Compound 13, copper sulfate]	209 nM/Gy
O=P([O-])([O-])O.[K+].[K+] [Compound 3, dipotassium hydrogen phosphate]	(No metal cation reduction
[Cl-].[Cl-].[Mg+2] [Compound 4, magnesium chloride]	(No metal cation reduction

same assay, conditions: 100 μM in deoxygenated ultrapure water, X-rays 0-1000 Gy, 4 Gy/min

Compound	Yield (radiation yield = disappeared concentration of reactant/radiation dose)
C1=Cc2cc3ccc(cc4nc(cc5ccc(cc1n2)[nH]5)C=C4)[nH]3.[Fe] [Compound 16, iron porphyrin]	598 nM/Gy
[K+].[K+].[O]=[Cr](=[O])([O-])[O][Cr](=[O])(=[O])[O-] [Compound 9, potassium dichromate]	87 nM/Gy
[Cl-].[Na+] [Compound 1, sodium chloride]	(No metal cation reduction
[Cl][Ni][Cl] [Compound 10, nickel chloride]	347 nM/Gy
[Cl][Fe]([Cl])[Cl] [Compound 5, ferric chloride]	578 nM/Gy
[NH2][Pt]([NH2])([Cl])([Cl])([O]C(=O)CCCC[P+](c1ccccc1)(c1ccccc1)c1ccccc1)[O]C(=O)CCCC[P+](c1ccccc1)(c1ccccc1)c1ccccc1 [Compound 18]	427 nM/Gy
[Cl-].[K+] [Compound 2, potassium chloride]	(No metal cation reduction
O=[N+]([O-])[O-].[Ag+] [Compound 14, silver nitrate]	576 nM/Gy

test: Radiation-driven (γ-ray) release of Pt(II) drugs from Pt(IV) complexes, UPLC-MS and NMR; format: physicochemical; conditions: γ-rays (60Co, 40 kGy), D2O, deoxygenated
From the text: To explore the generalizability of this strategy, we further conducted the same study on two other platinum-based drugs commonly used globally, carboplatin and cisplatin.

Compound	Product released after irradiation
[NH2][Pt]1([NH2])([O]C(=O)CCC(=O)O)([O]C(=O)CCC(=O)O)[O]C(=O)C2(CCC2)C(=O)[O]1 [carboPt(IV)-(Suc)2]	release the corresponding Pt(II) drugs
NC1CCCCC1N.O=C(O)CCC(=O)[O][Pt]1([O]C(=O)CCC(=O)O)[O]C(=O)C(=O)[O]1 [oxaliPt(IV)-(Suc)2]	released product was oxaliplatin
N.N.O=C(O)CCC(=O)[O][Pt]([Cl])([Cl])[O]C(=O)CCC(=O)O [cisPt(IV)-(Suc)2]	release the corresponding Pt(II) drugs
